Legend:
[1] = molecular target: T1, GLP-1R (Homo sapiens, UniProt P43220); experiment: CreLuc method (CRE-luciferase reporter), HEK293/pGM-CREB-L-Luc/GLP-1R pool; type: cell-based; settings: 6 h incubation, read-out: EC50 (pM) for each receptor GLP-1R
T1 construct: expressed in transfected cells
In short: (§1)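 Stable HEK293 pools co-expressing each receptor with a CRE-luciferase reporter were plated at 20,000 cells/well in freestyle medium and treated with compound dilution series for 6 h at 37 °C. Luminescence was read with ONE-GLO to derive EC50.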

[2] = molecular target: T2, GIPR (Homo sapiens, UniProt P48546); experiment: CreLuc method (CRE-luciferase reporter), HEK293/pGM-CREB-L-Luc/GIPR pool; type: cell-based; settings: 6 h incubation, read-out: EC50 (pM) for each receptor GIPR
T2 construct: expressed in transfected cells
T2 sequence (P48546 22-466): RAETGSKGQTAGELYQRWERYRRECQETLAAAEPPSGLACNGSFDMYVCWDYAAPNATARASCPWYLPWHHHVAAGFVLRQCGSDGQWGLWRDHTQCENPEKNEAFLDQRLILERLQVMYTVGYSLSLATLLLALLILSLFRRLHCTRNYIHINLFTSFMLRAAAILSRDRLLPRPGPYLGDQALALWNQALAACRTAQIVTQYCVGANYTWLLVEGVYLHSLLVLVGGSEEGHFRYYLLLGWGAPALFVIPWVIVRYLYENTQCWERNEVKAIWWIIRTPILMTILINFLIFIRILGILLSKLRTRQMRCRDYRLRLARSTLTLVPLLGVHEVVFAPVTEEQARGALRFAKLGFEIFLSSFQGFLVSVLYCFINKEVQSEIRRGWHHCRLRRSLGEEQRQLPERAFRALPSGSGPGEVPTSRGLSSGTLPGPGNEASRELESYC
In short: as §1

[3] = molecular target: T3, GCGR (Homo sapiens, UniProt P47871); experiment: CreLuc method (CRE-luciferase reporter), 293HEK/pGM-CREB-L-Luc/GCGR pool; type: cell-based; settings: 6 h incubation, read-out: EC50 (pM) for each receptor GCGR
T3 construct: expressed in transfected cells
T3 sequence (P47871 26-477, species assumed): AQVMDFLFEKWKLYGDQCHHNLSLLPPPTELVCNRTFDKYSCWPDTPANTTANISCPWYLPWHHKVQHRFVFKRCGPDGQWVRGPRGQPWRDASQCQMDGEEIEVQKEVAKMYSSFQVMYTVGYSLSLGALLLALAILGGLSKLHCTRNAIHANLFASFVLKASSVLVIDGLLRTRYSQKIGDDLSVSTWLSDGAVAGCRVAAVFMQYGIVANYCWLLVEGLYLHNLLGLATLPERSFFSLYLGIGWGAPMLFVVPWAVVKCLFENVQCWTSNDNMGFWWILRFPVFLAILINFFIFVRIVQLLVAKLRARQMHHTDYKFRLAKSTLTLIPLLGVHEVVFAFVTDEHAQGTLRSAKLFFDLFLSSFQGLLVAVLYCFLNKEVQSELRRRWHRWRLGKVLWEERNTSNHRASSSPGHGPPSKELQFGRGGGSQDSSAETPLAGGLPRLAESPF
In short: as §1

[4] = molecular target: T1, GLP-1R; experiment: cAMP method (HTRF cAMP detection kit), HEK293/pGM-CREB-L-Luc/GLP-1 pool; type: cell-based; settings: read-out: EC50 (pM) for each receptor GLP-1R
Method: (§2) 2. Insulinotropic analogues can bind to target receptors on the cell membrane, activate the receptors, and induce release. The activity of the test substance can be determined using the HTRF method with a cAMP detection kit. Therefore, the cAMP method can be used to detect the target peptide derivatives (or polypeptide derivatives, i.e., TG1-TG86) prepared in Example 1 and Example 2. […] The test cell line was selected, treated with cAMP-specific trypsin for digestion. 3 mL of serum-free DMEM culture medium was added, and the cells were pipetted, resuspended, and counted. 5 µL of IBMX (prepared with serum-free DMEM medium, 0.5 mM) and test cells (5 µL/7500 cells/well) were added in a 384-well plate sequentially. The plate was incubated at 37°C under 5% CO2 for 30 min, followed by the addition of cAMP-d2 (5 µL, 1x) and Anti-cAMP-Cryptate (5 µL, 1x). The mixture was kept at room temperature for 1 h, after which the HTRF value was measured using a chemiluminescent microplate reader, and the determination result was recorded. […] Table 4: EC50 values for target peptide derivatives

[5] = molecular target: T3, GCGR; experiment: cAMP method (HTRF cAMP detection kit), HEK293/pGM-CREB-L-Luc/GCG pool; type: cell-based; settings: read-out: EC50 (pM) for each receptor GCGR
Method: as §2

[6] = molecular target: T2, GIPR; experiment: cAMP method (HTRF cAMP detection kit), HEK293/pGM-CREB-L-Luc/GIP pool; type: cell-based; settings: read-out: EC50 (pM) for each receptor GIPR
Method: as §2

[7] = in vivo; design: species or system male SD rats; settings: rat
Method: The pharmacokinetic behavior of target peptide derivatives (or polypeptide derivatives) prepared in Example 1 and Example 2, i.e., TG1-TG94 in rodents was tested. The specific steps are as follows:
The target peptide derivatives (TG1-TG94) to be tested were administered to male SD rats via subcutaneous injection (SC, 3 mg/kg; drug vehicle: PBS, concentration: 1.5 mg/mL; administration volume: 2 mL) and intravenous injection (IV, 1 mg/kg; drug vehicle: PBS, concentration: 0.5 mg/mL; administration volume: 2 mL) as a single dose, respectively. Whole blood samples were collected from the jugular vein or other appropriate vein at the following time points after administration: for SC, 15 min, 30 min, 1 h, 2 h, 4 h, 6 h, 8 h, 24 h, 48 h, 72 h, 96 h, 120 h, and 168 h; for IV, 5 min, 15 min, 30 min, 1 h, 2 h, 4 h, 8 h, 24 h, 48 h, 72 h, 96 h, 120 h, and 168 h. 0.2 mL of blood was collected and transferred into a labeled EDTA-K2 anticoagulant tube. The tube was gently inverted to ensure thorough mixing of the anticoagulant (EDTA-K2) with the blood and immediately placed on wet ice. Plasma separation was performed as soon as possible by centrifugation under the following conditions: 4°C, 6800xg, for 6 min. The plasma samples were stored in a refrigerator at no higher than -20°C and used for analysis when needed.
Under the condition of yellow light in an ice-water bath, except for blank samples, 300 µL of precipitant containing an internal standard was added to a 96-well plate containing 20 µL of standard curve sample, quality control sample, or unknown sample; 300 µL of acetonitrile was added to the blank sample. The mixture was vortexed, mixed well, and then centrifuged. 150 µL of the supernatant after centrifugation was transferred to a new 96-well plate, and 150 µL of ultrapure water was added and mixed well. The above samples were subjected to quantitative analysis using LC-MS analysis with XB-C18 (2.1 * 100 mm, 3 µm) chromatography for gradient elution. The mobile phases used were: mobile phase A = 0.1% formic acid-water; mobile phase B = acetonitrile. Phoenix WinNonlin software was used to calculate the pharmacokinetic parameters. […] Table 5A: Pharmacokinetic parameters of target peptide derivatives

T1 sequence (P43220 24-463, species assumed): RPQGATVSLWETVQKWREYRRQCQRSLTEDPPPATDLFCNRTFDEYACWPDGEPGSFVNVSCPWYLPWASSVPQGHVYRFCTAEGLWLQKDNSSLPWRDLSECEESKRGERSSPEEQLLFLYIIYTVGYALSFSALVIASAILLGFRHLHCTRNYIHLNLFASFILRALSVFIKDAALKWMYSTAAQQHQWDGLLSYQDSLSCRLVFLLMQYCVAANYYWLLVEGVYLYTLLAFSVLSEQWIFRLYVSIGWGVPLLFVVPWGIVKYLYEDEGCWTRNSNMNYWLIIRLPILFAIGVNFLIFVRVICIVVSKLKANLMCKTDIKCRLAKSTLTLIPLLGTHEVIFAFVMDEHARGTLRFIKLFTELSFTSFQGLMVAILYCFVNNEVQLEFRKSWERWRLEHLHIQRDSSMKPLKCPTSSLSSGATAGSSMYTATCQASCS

With `CC[C@H](C)[C@@H]1NC(=O)[C@H](Cc2ccccc2)NC(=O)[C@@H](NC(=O)C(C)(C)NC(=O)[C@H](CCC(N)=O)NC(=O)[C@H](C)NC(=O)[C@H](CCCCNC(C)=O)NC(=O)[C@H](CCCCN)NC(=O)[C@H](CC(=O)O)NC(=O)[C@H](CCC(C)C)NC(=O)[C@](C)(CC(C)C)NC(=O)[C@@H](NC(=O)[C@H](CO)NC(=O)[C@H](Cc2ccc(O)cc2)NC(=O)[C@H](CC(=O)O)NC(=O)[C@H](CO)NC(=O)[C@@H](NC(=O)[C@H](Cc2ccccc2)NC(=O)[C@@H](NC(=O)CNC(=O)[C@H](CCC(N)=O)NC(=O)C(C)(C)NC(=O)[C@@H](N)Cc2ccc(O)cc2)[C@@H](C)O)[C@@H](C)O)[C@@H](C)CC)CSCC(=O)NCCN(C(=O)CCC(=O)NCCOCCOCC(=O)NCCOCCOCC(=O)NCCCC[C@H](NC(=O)CCCCCCCCCCCCCCCCCCC(=O)O)C(=O)O)CCNC(=O)CSC[C@@H](C(=O)NCC(=O)NCC(=O)N2CCC[C@H]2C(=O)N[C@@H](CO)C(=O)N[C@@H](CO)C(=O)NCC(=O)N[C@@H](C)C(=O)N2CCC[C@H]2C(=O)N2CCC[C@H]2C(=O)N2CCC[C@H]2C(=O)N[C@@H](CO)C(N)=O)NC(=O)[C@H](CC(C)C)NC(=O)[C@H](CC(C)C)NC(=O)[C@H](Cc2ccc(O)cc2)NC(=O)[C@H](CCC(=O)O)NC1=O` [TG25] the EC50 [1] was 54 pM, the EC50 [2] was 24.4 pM and the EC50 [3] was 311 pM. It also gave an EC50 [4] of 2.2 pM and an EC50 [5] of 65.1 pM.
For `CC[C@H](C)[C@@H]1NC(=O)[C@H](Cc2ccccc2)NC(=O)[C@@H](NC(=O)C(C)(C)NC(=O)[C@H](CCC(N)=O)NC(=O)[C@H](C)NC(=O)[C@H](CCCCNC(C)=O)NC(=O)[C@H](CCCCN)NC(=O)[C@H](CC(=O)O)NC(=O)[C@H](CC(C)C)NC(=O)[C@](C)(CC(C)C)NC(=O)[C@@H](NC(=O)[C@H](CO)NC(=O)[C@H](Cc2ccc(O)cc2)NC(=O)[C@H](CC(=O)O)NC(=O)[C@H](CO)NC(=O)[C@@H](NC(=O)[C@H](Cc2ccccc2F)NC(=O)[C@@H](NC(=O)CNC(=O)[C@H](CCC(N)=O)NC(=O)C(C)(C)NC(=O)[C@@H](N)Cc2ccc(O)cc2)[C@@H](C)O)[C@@H](C)O)[C@@H](C)CC)CSCC(=O)NCCN(C(=O)CCC(=O)NCCOCCOCC(=O)NCCOCCOCC(=O)NCCCC[C@H](NC(=O)CCCCCCCCCCCCCCCCCCC(=O)O)C(=O)O)CCNC(=O)CSC[C@@H](C(=O)NCC(=O)NCC(=O)N2CCC[C@H]2C(=O)N[C@@H](CO)C(=O)N[C@@H](CO)C(=O)NCC(=O)N[C@@H](C)C(=O)N2CCC[C@H]2C(=O)N2CCC[C@H]2C(=O)N2CCC[C@H]2C(=O)N[C@@H](CO)C(N)=O)NC(=O)[C@H](CC(C)C)NC(=O)[C@H](CC(C)C)NC(=O)[C@H](Cc2ccc(O)cc2)NC(=O)[C@H](CCC(=O)O)NC1=O` [TG40], the EC50 [1] was 33.9 pM, the EC50 [2] was 12.5 pM and the EC50 [3] was 92.9 pM. It also gave an EC50 [6] of 3.1 pM, an EC50 [5] of 2.1 pM and an AUC(0-inf) ([7]; male, SD, iv, 1 mg/kg) of 165 µg·h/mL. It also gave an AUC(0-t) ([7]; male, SD, iv, 1 mg/kg) of 164 µg·h/mL, an MRT ([7]; male, SD, iv, 1 mg/kg) of 22.1 h and a Vd ([7]; male, SD, iv, 1 mg/kg) of 0.134 L/kg. The clearance ([7]; male, SD, iv, 1 mg/kg) was 0.101 mL/min/kg, the half-life ([7]; male, SD, iv, 1 mg/kg) was 15 h and the bioavailability ([7]; male, SD, sc) was 50%. For the same compound, the AUC(0-inf) ([7]; male, SD, sc, 3 mg/kg) was 248 µg·h/mL, the AUC(0-t) ([7]; male, SD, sc, 3 mg/kg) was 247 µg·h/mL and the CL/F ([7]; male, SD, sc, 3 mg/kg) was 0.205 mL/min/kg. For the same compound, the Cmax ([7]; male, SD, sc, 3 mg/kg) was 4770 ng/mL, the MRT ([7]; male, SD, sc, 3 mg/kg) was 36.9 h and the Tmax ([7]; male, SD, sc, 3 mg/kg) was 24 h. For the same compound, the half-life ([7]; male, SD, sc, 3 mg/kg) was 13.1 h, the “AUC0-t /AUC0-inf” value ([7]; iv, 1 mg/kg) was 0.997 and the Kel ([7]; iv, 1 mg/kg) was 0.0462 h⁻¹. The “AUC0-t /AUC0-inf” value ([7]; sc, 3 mg/kg) was 0.996 and the Vz/F ([7]; sc, 3 mg/kg) was 0.232 L/kg.

Source: patent EP4790066A1, “GLP-1R/GIPR/GCGR TRIPLE AGONIST ANALOGUE AND USE THEREOF” (Shenzhen Bay Laboratory, priority 2023, dated 2025)
